Like-named read-outs stand apart in the source and are kept apart here.
Assays:
[1] = biological target: T1, cannabinoid receptor (CP 55940 binding sites) (Rattus norvegicus, UniProt P20272); assay: CP55940 binding assay (CP)
T1 construct: from tissue; host or cells: rat brain membranes (inferred from the cited Devane et al. 1988)

[2] = test system: mouse vas deferens; assay: mouse vas deferens adrenergic transmission test (MVD); assay type: cell-based; conditions: for inhibition at 10 µM: read-out: MVD percent inhibition at a given dose level; for IC50: inhibition of contractions in the MVD preparation in vitro, active at IC50 of 5.0 μM or less
Excerpt: Med. Assoc. 217, 1392 (1971)]. […] Opth. 7, 921-923 (1975); Green and Pederson, Effect of delta-9 Tetrahydrocannabinol on Aqueous Dynamics and Ciliary Body Permeability in the Rabbit Eye., Exptl. Eye Research 15, 499-507 (1973); Colasanti, Craig and Allara, Intraocular Pressure, Ocular Toxicity and Neurotoxicity after Administration of Cannabinol or Cannabigerol, Exptl. Eye Research 39, 252-259 (1984)]. Similarly, synthetic cannabinoids also reduce intraocular pressure [Green, Symunds, Oliver and Elijah, Intraocular Pressure Following Systemic Administration of Cannabinoids., Curr. […] Cannabinoid receptor binding sites can be defined as those to which radio-labelled 4-(1,1-dimethyl-heptyl)-2,3'-dihydroxy-6'alpha-(3-hydroxypropyl)-1',2',3',4',-5',6'-hexahydrobiphenyl (CP 55940) binds in a specific and saturable manner and the binding sites are heterogeneously distributed in the brain [Devane, Dysarz, Johnson, Melvin and Howlett, Determination and Characterization of a Cannabinoid Receptor in Rat Brain, Molecular Pharm 34, 605-613 (1988)]. Natural and synthetic cannabinoids and representative examples of the compounds of the present invention bind to CP 55940 binding sites. […] It is believed that agonist activity at the cannabinoid receptor mediates the anti-glaucoma actions of cannabinoids, and that agonist activity at this receptor correlates with ocular pressure lowering actions in man.
The compounds are identified by the Example or the Preparation number above where their preparations are described.

[3] = smoking (marijuana, man); topical application or systemic injection (delta-9 tetrahydrocannabinol; cited studies in man and rabbit); cited from earlier work

T1 sequence (P20272 whole entry): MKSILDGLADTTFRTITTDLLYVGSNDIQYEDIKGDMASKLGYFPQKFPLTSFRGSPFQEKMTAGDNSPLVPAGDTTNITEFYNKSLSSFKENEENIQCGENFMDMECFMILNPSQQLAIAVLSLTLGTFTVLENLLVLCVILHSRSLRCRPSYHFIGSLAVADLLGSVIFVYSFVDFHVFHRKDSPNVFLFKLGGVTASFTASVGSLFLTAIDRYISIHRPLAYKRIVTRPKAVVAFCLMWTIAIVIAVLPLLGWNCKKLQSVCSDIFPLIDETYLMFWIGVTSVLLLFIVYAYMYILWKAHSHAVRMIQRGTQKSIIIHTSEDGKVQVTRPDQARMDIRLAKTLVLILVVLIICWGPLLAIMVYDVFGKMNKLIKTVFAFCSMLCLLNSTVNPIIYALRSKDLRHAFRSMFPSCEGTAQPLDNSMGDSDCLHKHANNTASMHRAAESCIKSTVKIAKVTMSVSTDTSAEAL

Q: For `COc1ccc(C(=O)c2c(C)n3c4c(cccc24)OCC3CN2CCOCC2)cc1` (single isomer, unassigned; (+)) [Ex. 2H (d)], which IC50 ([1]; CP55940 binding, read-out: CP IC50) is on record?
A: 199 nM

Q: Which inhibition at 10 µM ([2]; Mus musculus) does the source give for `COc1ccc(C(=O)c2c(C)n3c4c(cccc24)OCC3CN2CCOCC2)cc1` (single isomer, unassigned; (-)) [Ex. 2H (1)] here?
A: 44%

Q: For `Cc1c(Sc2ccccc2)c2cccc3c2n1C(CN1CCOCC1)CO3` (single isomer, unassigned; (-)) [Prep. 4B (1)], which IC50 [2] is on record?
A: 690 nM

Q: With `Cc1c(C(=O)c2cccc3ccccc23)c2cccc3c2n1C(CN1CCOCC1)CO3` (single isomer, unassigned; (-)) [Ex. 2B (1), (-)-3-(4-morpholinylmethyl)-5-methyl-6-(1-naphthylcarbonyl)-2,3-dihydropyrrolo[1,2,3-de]-1,4-benzoxazine methanesulfonate] as the compound, how does the inhibition at 10 µM ([2]; Mus musculus) read?
A: 37%

Q: For `Cc1c(C(=O)c2cccc3ccccc23)c2cccc3c2n1C(CN1CCOCC1)CO3` (single isomer, unassigned; (+)) [Ex. 2B (d), (+)-3-(4-morpholinylmethyl)-5-methyl-6-(1-naphthylcarbonyl)-2,3-dihydropyrrolo[1,2,3-de]-1,4-benzoxazine methanesulfonate], which IC50 ([2]; methanesulfonate) is on record?
A: 43 ± 0.1 nM

Q: With `Cc1c(Sc2ccccc2)c2cccc3c2n1C(CN1CCOCC1)CO3` (centres unmarked) [Prep. 4A (d,1)] as the compound, how does the IC50 ([2]; Mus musculus) read?
A: > 10000 nM

Q: Which IC50 ([1]; CP IC50, CP55940 binding) does the source give for `Cc1c(C(=O)c2cccc3ccccc23)c2cccc3c2n1CC(CN1CCOCC1)O3` (centres unmarked) [Ex. 2I, 2-(4-morpholinylmethyl)-5-methyl-6-(1-naphthylcarbonyl)2,3-dihydropyrrolo[1,2,3-de]-1,4-benzoxazine] here?
A: ~10 nM

Q: Which “effect on intraocular pressure” value [3] does the source give for `CCCCCc1cc(O)c2c(c1)OC(C)(C)[C@@H]1CCC(C)=C[C@@H]21` [delta-9 tetrahydrocannabinol] here?
A: reduces intraocular pressure

Q: Which IC50 ([2]; methanesulfonate) does the source give for `Cc1c(C(=O)c2cccc3c(Br)cc(Br)cc23)c2cccc3c2n1C(CN1CCOCC1)CO3` (single isomer, unassigned; (-)) [Ex. 1E, (-)-3-(4-morpholinylmethyl)-5-methyl-6-(5,7-dibromonaphthylcarbonyl)-2,3-dihydropyrrolo[1,2,3-de]-1,4-benzoxazine methanesulfonate] here?
A: 2620 ± 1700 nM

Q: Which IC50 [2] does the source give for `Cc1c(Sc2ccccc2)c2cccc3c2n1C(CN1CCOCC1)CO3` (single isomer, unassigned; (+)) [Prep. 4B (d)] here?
A: 70 nM

Q: For `CCc1c(C(=O)c2ccc(OC)cc2)c2cccc3c2n1C(CN1CCOCC1)CO3` (centres unmarked) [Ex. 2A], which inhibition at 10 µM ([2]; Mus musculus) is on record?
A: 27%
